Consider eleven compounds from US9522159B2, “Treatment and prevention of P. aeruginosa infections using coformycin analogs” (Albert Einstein College of Medicine, Inc., priority 2012, dated 2016).

In data set [1] the target is T1, PaMTADA (Pseudomonas aeruginosa, UniProt Q9HZ64).
T1 sequence (Q9HZ64 1-444): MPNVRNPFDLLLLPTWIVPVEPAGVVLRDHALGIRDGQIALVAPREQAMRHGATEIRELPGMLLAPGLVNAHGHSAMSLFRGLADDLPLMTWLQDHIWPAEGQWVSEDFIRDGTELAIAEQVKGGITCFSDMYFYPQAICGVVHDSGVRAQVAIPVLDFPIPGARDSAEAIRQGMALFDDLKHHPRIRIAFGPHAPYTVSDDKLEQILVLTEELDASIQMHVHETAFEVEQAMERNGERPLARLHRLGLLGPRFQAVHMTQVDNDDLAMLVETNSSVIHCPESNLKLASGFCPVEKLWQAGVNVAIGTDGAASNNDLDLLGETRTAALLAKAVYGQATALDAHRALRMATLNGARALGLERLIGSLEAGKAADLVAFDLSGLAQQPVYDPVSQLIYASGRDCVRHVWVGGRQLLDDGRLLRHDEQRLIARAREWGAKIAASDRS
Put plainly: Inhibition assays for PaMTADA. In kind it is biochemical. The source says:
(§1) Inhibition assays. […] Controls having no enzyme and no inhibitor were included in all of the inhibition assays. The inhibition constant was obtained by fitting initial rates with variable inhibitor concentrations to equation (1) using GraFit 5 (Erithacus Software): […]
(§2) The inhibitor concentration was corrected using equation (2) when it was less than 10 times of the enzyme concentration (20): […]

Data set [2] addresses T1, PaMTADA. The data set can be described thus: Inhibition of PaMTADA activity in P. aeruginosa cell lysates ([8-14C]MTA degradation). In kind it is biochemical, Pseudomonas aeruginosa PAO1. As to the method:
(§3) Inhibition of cellular PaMTADA activity. Inhibition of PaMTADA activity in cell lysates was carried out as follows. P. aeruginosa PAO1 (ATCC number: 15692) was grown at 37° C. to stationary phase in LB medium for 16 hours. Cells were collected by centrifugation at 16,100 g and washed three times with 100 mM phosphate, pH 7.4. Cells were lysed using BugBuster reagent (Novagen). […] Reaction mixtures were quenched with perchloric acid (1.8 M final concentration) and neutralized with potassium hydroxide. Precipitates were removed by centrifugation and carrier hypoxanthine, adenine, MTI, and MTA were added to the supernatant. Separation of the metabolites was carried out on a C18 Luna HPLC column (Phenomenex) with a gradient of 5 to 52.8% acetonitrile in 20 mM triethylamine acetate, pH 5.2. The UV absorbance at 260 nm was monitored. […] Fractions were collected in scintillation vials, dried, reconstituted in 200 μL deionized water prior to addition of 10 mL ULTIMA GOLD LSC-Cocktail scintillation fluid. The cpm of ^14C was counted at 20 min per cycle for three cycles using a Tri-Carb 2910TR liquid scintillation analyzer. Cell lysate was replaced by lysis buffer in reaction mixtures in control experiments. […] All other procedures were the same as described above.
(§4) [formula] where y is the percentage of degraded MTA at certain [I] […] Results and Discussion
Inhibition of cellular PaMTADA activity. […]

Data set [3] concerns the target T2, Human ADA (Homo sapiens, UniProt P00813).
T2 sequence (P00813 1-363): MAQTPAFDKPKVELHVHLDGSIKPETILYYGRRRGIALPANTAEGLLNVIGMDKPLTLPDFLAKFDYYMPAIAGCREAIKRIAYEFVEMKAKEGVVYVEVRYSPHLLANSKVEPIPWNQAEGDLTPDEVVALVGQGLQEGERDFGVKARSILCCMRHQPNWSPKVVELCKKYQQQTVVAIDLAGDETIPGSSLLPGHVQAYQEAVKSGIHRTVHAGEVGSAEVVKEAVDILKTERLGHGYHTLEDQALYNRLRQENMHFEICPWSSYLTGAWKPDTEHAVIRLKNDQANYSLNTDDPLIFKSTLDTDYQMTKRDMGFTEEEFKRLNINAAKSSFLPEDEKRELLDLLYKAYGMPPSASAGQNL
Particulars: cited from earlier work; for Ki: equilibrium dissociation constant, from Tyler et al. (15); for inhibitory effect on human ADA: result in words.

In data set [4] the target is E. coli MTA nucleosidase (MTAN) (Escherichia coli, UniProt P0AF12). The data set can be described thus: Degradation of MTCF by E. coli MTA nucleosidase. In kind it is biochemical. As for the experimental part: (§5) Enzymatic assays. […] Deaminase activity on guanosine was measured at 260 nm with an extinction coefficient of 3.9 mM^−1cm^−1 (18). […] The extinction coefficient is 15.5 mM^−1cm^−1 at 305 nm. Reactions of deaminase were carried out at 25° C. in 1 cm cuvettes. Assay mixtures of 1 mL contained 50 mM Hepes, pH 7.4, 100 mM NaCl, 100 μg/mL BSA, variable concentrations of substrate, and appropriate amounts of purified PaMTADA. Reactions were initiated by addition of enzyme and the initial rates were monitored with a CARY 300 UV-Visible spectrophotometer. Control rates (no PaMTADA) were subtracted from initial rates. Kinetic parameters of PaMTADA were obtained by fitting initial rates to the Michaelis-Menten equation using GraFit 5 (Erithacus Software).
E. coli MTA nucleosidase (MTAN), sequence (P0AF12 whole entry): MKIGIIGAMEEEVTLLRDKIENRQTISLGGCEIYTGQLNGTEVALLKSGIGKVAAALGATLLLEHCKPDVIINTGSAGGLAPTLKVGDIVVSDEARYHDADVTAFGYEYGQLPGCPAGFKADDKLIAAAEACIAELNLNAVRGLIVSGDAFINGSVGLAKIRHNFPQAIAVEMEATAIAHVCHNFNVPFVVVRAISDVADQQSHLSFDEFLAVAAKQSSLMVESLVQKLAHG
(§6) MTCF was examined to test if it might be metabolized by other enzymes related to MTA metabolism, namely by human MTA phosphorylase (MTAP) and E. coli MTA nucleosidase (MTAN).

For data set [5], the target named is T3, human MTA phosphorylase (MTAP) (Homo sapiens, UniProt Q13126).
T3 sequence (Q13126 1-283): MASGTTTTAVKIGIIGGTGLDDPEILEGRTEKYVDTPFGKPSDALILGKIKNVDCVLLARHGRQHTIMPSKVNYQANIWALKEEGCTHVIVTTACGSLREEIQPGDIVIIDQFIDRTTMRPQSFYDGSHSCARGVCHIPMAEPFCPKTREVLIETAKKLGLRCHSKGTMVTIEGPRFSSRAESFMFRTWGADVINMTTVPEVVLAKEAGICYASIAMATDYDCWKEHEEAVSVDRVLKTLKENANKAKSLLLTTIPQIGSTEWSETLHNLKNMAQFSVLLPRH
Put plainly: Degradation of MTCF by human MTA phosphorylase. In kind it is biochemical. As for the experimental part:
as §5, §6

In the next data set the test system is P. aeruginosa PAO1. The data set can be described thus: Growth of P. aeruginosa PAO1 with or without MTCF (OD600). Particulars: up to 1 μM, 36 hours at 37° C. In kind it is cell-based, Pseudomonas aeruginosa PAO1. As to the method: (§7) Two hypotheses were considered for this activity. […] Second, the residual activity might arise from diffusional release of the inhibitor during the dilution (and incubation) of a small volume of cell extract into the larger volume of lysis buffer and other incubation buffer.

For data set [6], the target named is T1, PaMTADA. Put plainly: Inhibition of cellular PaMTADA activity, MTCF added to LB medium during growth. In kind it is cell-based, Pseudomonas aeruginosa PAO1. As for the experimental part: as §3, §4, §7
For the next data set, the target named is E. coli MTAN (Escherichia coli, UniProt P0AF12). The data set can be described thus: Inhibition assays of EcMTAN. In kind it is biochemical.
E. coli MTAN, sequence (P0AF12 whole entry): as the sequence (P0AF12 whole entry) above
A further data set deals with T4, human MTAP (Homo sapiens, UniProt Q13126).
T4 sequence (Q13126 1-283): T3 sequence (Q13126 1-283)
The data set can be described thus: Inhibition assays of HsMTAP. In kind it is biochemical. As to the method: as §5, §1, §2

The target of data set [7] is T5, PfADA (Plasmodium falciparum, UniProt Q8IJA9).
T5 sequence (Q8IJA9 1-367): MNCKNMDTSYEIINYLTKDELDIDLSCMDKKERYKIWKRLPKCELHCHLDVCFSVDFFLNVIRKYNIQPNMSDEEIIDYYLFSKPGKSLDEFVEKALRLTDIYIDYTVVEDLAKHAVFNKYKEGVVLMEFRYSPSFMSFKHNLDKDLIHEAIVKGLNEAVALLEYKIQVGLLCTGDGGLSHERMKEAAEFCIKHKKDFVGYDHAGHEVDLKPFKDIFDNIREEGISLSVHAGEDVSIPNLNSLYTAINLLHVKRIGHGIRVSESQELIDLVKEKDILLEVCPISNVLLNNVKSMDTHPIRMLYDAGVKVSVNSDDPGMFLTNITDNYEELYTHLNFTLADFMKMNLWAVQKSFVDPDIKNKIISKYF
Put plainly: PfADA inhibition, Ki values from Tyler et al. Particulars: times weaker than CF. In kind it is biochemical.

Data set [8] addresses T5, PfADA. Conditions: cited from earlier work.
The target of data set [9] is T1, PaMTADA. The data set can be described thus: Deaminase activity of PaMTADA on substrates (enzymatic assays). Conditions: for deaminase activity on substrate: PaMTADA (recombinant PA3170), result in words. In kind it is biochemical. As to the method: as §5
Data set [10] has as its target T2, Human ADA. Particulars: substrate, from Tyler et al. (15); cited from earlier work.
Data set [11] relates to CC(O)[C@H]1O[C@@H](n2cnc3c(N)ncnc32)[C@H](S)[C@@H]1O. Put plainly: purified protein, by the assay type. Particulars: other: PaMTADA, substrate, 25° C., pH 7.4.
The mark [12] stands for this setting: equilibrium dissociation constant, from Tyler et al. (15), read-out: PfADA Ki.
The mark [13] stands for this setting: PaMTADA, substrate, 25° C., pH 7.4.

Where “and” joins values, the source holds several entries; their conditions need not be identical. Identical values can stand only once. Entries after “also recorded” stand apart in the source; their conditions may differ. Like-named read-outs stand apart in the source and are kept apart here.

Consider `OC[C@H]1O[C@@H](n2cnc3c2N=CNC[C@H]3O)[C@H](O)[C@@H]1O` [Coformycin (CF), Coformycin], for which the Ki at PaMTADA [1] (equilibrium dissociation constant (Ki or Ki*), 25° C., pH 7.4, 100 μM MTA, read-out: PaMTADA Ki) was 90 ± 10 nM.
`OC[C@H]1O[C@@H](n2cnc3c2NC=NC[C@H]3O)C[C@@H]1O` [DCF, 2′-deoxycoformycin, reference compound] showed a Ki at PaMTADA [1] of 37 nM.
For the compound `CSC[C@H]1O[C@@H](n2cnc3c2N=CNC[C@H]3O)[C@H](O)[C@@H]1O` [MTCF, 5′-methylthiocoformycin], the “degradation of MTA” value at PaMTADA [2] (50 nM inhibitor in cell lysate) is reported as “completely blocked”. Further, the IC50 against PaMTADA [2] (MTCF added to P. aeruginosa cell lysate, [8-14C]MTA degradation, 20 min) amounted to 4 nM; against PaMTADA [6] (MTCF in LB medium during growth, corrected for residual activity), 3 nM. Further, the Ki on Human ADA [3] was greater than 10000 nM; at E. coli MTAN, greater than 5000 nM; on human MTAP, 3000 nM. Moreover, the “inhibitory effect on human ADA” value at Human ADA [3] is “no significant inhibition; also recorded: no significant inhibitory effects”. For the same compound, the “degradation of MTCF, kobs” value in data set [4] and in data set [5] was less than 0.001 s⁻¹ throughout. In addition, in the data set with P. aeruginosa PAO1, the “effect on cell growth” value is “no effect”. Besides, the “concentration at which maximal inhibition was achieved” value at PaMTADA [6] (MTCF in LB medium) stood at 10 nM. Moreover, the PaMTADA activity result on PaMTADA [6] (cells grown with 500 nM MTCF in LB, 100 nM MTCF added to cell lysate) is given as “All PaMTADA activity was inhibited”. Besides, the “permeability to P. aeruginosa cells” value at PaMTADA [6] (inferred from inhibition after growth in MTCF-containing LB) is “permeable”. For the same compound, at human MTAP (result in words), the “inhibition of human MTA phosphorylase” value is given as “no significant inhibition; also recorded: no significant inhibitory effects”.
With `CSCC1OC(n2cnc3c2N=CNCC3O)CC1O` (centres unmarked) [MTDCF, 5′-methylthio-2′-deoxycoformycin], the Ki was greater than 10000 nM at Human ADA [3]; 0.008 nM on PaMTADA [1]; 0.7 ± 0.2 nM on PfADA [8] (setting [12]); 0.7 nM on PfADA [8] (from (15), read-out: PfADA Ki / equilibrium dissociation constant). Moreover, on Human ADA [3], the “inhibitory effect on human ADA” value was “no inhibitory effect”. The “binding affinity for PfADA relative to CF” value at PfADA [7] stood at 9 times.
With `O[C@@H]1CNC=Nc2c1ncn2[C@H]1C[C@H](O)[C@@H](CSc2ccccc2)O1` [PhTDCF, 5′-phenylthio-2′-deoxycoformycin], the Ki at PaMTADA [1] (25° C., pH 7.4, 100 μM MTA, read-out: PaMTADA Ki / dissociation constant) is 0.13 nM; at PfADA [8] (setting [12]), 60 nM.
Regarding `CCCSCC1OC(n2cnc3c2N=CNCC3O)CC1O` (centres unmarked) [PrTDCF, 5′-propylthio-2′-deoxycoformycin], the Ki at Human ADA [3] was greater than 10000 nM; at PaMTADA [1], 0.067 nM. At PaMTADA [1] (times weaker than MTDCF), the “binding to PaMTADA relative to MTDCF” value stood at 8 times. The “binding affinity for PfADA relative to CF” value on PfADA [7] is reported as 150 times.
Take `Nc1ncnc2c1ncn2[C@@H]1O[C@H](CSCC[C@H](N)C(=O)O)[C@@H](O)[C@H]1O` [SAH, S-adenosylhomocysteine]: the “deaminase activity on substrate” value at PaMTADA [9] was “inactive”.
Turning to `Nc1ncnc2nc[nH]c12` [adenine], the “deaminase activity on substrate” value on PaMTADA [9] was “inactive”.
For the compound `Nc1ncnc2c1ncn2[C@@H]1O[C@H](CO)[C@@H](O)[C@H]1O` [adenosine], at PaMTADA [9] (setting [13]), the Km worked out at 46 µM; the kcat is 17 s⁻¹ and 17 ± 1 s⁻¹. Further, at Human ADA [10], the Michaelis-Menten constant (Km) was 22 ± 3 µM and the kcat was 36 ± 1 s⁻¹.
As for `Nc1nc2c(ncn2[C@@H]2O[C@H](CO)[C@@H](O)[C@H]2O)c(=O)[nH]1` [guanosine], the “deaminase activity on substrate” value at PaMTADA [9] is “inactive”.
Turning to PaMTADA (Pseudomonas aeruginosa PAO1), in data set [11], the Km is 1.5 µM, the kcat turned out to be 24.6 ± 0.8 s⁻¹ and the kcat/Km was 160 ± 30 ×10^5 M^−1s^−1.

For orientation: IC50 means the concentration that inhibits the measured activity by half. High values mean weaker potency in that assay, low ones greater potency in that assay. In general, Km refers to the concentration of substrate that gives half-maximal velocity. A word on the kcat: it is the number of substrate molecules converted per active site and unit of time at saturation.
